IC50 and VEGF-C data for 19 compounds are collected here from patent US7238813B2, “Chemical compounds” (Smithkline Beecham Corporation, priority 2000, dated 2007).

Structures are written as SMILES. Where a name gives a salt, the structure may show the parent alone.

One assay has as its target Recombinant GST-Tie2 (Homo sapiens, UniProt Q02763). The assay is described as follows: Tie2 fluorescence polarization kinase activity assay (TIE2-FP). Format: biochemical. The note with it: starred examples, 200 μM ATP, read-out: TIE2-E (Tie-2 activities run utilizing Tie2-FP assay). As to the method:
Tie2 Fluorescence Polarization Kinase Activity Assay: (TIE2-FP)
Activation of Recombinant Tie2 Activation:
Recombinant GST-Tie2 was activated by incubating the enzyme in 20 mM Tris-HCl, pH 7.5, 12 mM MgCl2, 100 mM NaCl, 20 μM sodium vanidate, 1 mM DTT and 300 μM ATP at room temperature for 2 hours. The activation mixture was then passed through a NAP-25 desalting column (Pharmacia Biotech cat. no. 17-0852-02) to remove the free ATP. The activated enzyme was stored as aliquots at −80° C. in 20 mM Tris-HCl, pH 7.5 and 100 mM NaCl.
The final assay conditions were 50 mM HEPES, pH 7.5, 5% DMSO (when screening compounds), 200 μM ATP, 5 mM MgCl2, 1 mM DTT, 50 μM sodium vanidate, 1 nM activated enzyme, and 200 μM peptide. IC50's of compounds were measured under subsaturating ATP (200 μM) and varing concentrations of activated Tie2 and peptide substrate ([…]-OH; MW 1873 Da, TFA salt). Panvera Antiphosphotyrosine antibody (Cat#P2840) and PTK Green Tracer (Cat#P2842) were used to detect the phosphorylated peptide. Polarization was measured on a TECAN Polarion in 138-second cycles for 30 minutes at room temperature. IC50's were then determined from the % polarization using normal calculation methods.
For orientation: Polarisation of emitted light reports the rotation of a fluorescent probe.

Another assay concerns the target T1, GST-VEGFR2 (Homo sapiens, UniProt P35968).
T1 construct: GST-VEGFR2, baculovirus expressed recombinant constructs of the intracellular domains of human TIE2 tagged by GST; made in house
The assay is described as follows: VEGF-R2 enzyme assay (VEGF-E), LANCE method. The assay is classed as biochemical. The note with it: 75 μM ATP.

Assay [1] deals with Human umbilical cord endothelial cells (HUVEC). The assay is described as follows: VEGF-driven cellular proliferation assay: BrdU incorporation assay (VEGF-C). Format: cell-based. Particulars: for IC50: Homo sapiens. Details: key to VEGF-C: + = pIC50 of 5.0–6.0; ++ = pIC50 of 6.0–7.0; +++ = pIC50 of > 7.0; − = a negative or inconclusive result. The procedure, abridged:
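HUVEC (≤6 passages) were plated at 5000 cells/well and exposed to compound 30 min in serum-free M199 containing 0.6% DMSO. Medium with 20 ng/ml VEGF was then added for 24 h, followed by a 24 h pulse with 10 μM BrdU and ELISA read at 450 nm. IC50 from nonlinear regression of percent inhibition was expressed as pIC50.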
For orientation: Uptake of a labelled nucleoside into DNA is a usual measure of proliferation.

The target in assay [2] is T2, TIE2 intracellular domain/c-fms extracellular domain (TIE2/c-fms) chimeric protein expressing mouse 3T3 cells (Homo sapiens, UniProt Q02763).
T2 construct: a TIE2 intracellular domain/c-fms extracellular domain (TIE2/c-fms) chimeric protein; expressed in transfected cells; host or cells: mouse 3T3 cells
The assay is described as follows: TIE-2 autophosphorylation assay (TIE2-C), ELISA. The assay is classed as cell-based. The note with it: TIE2/c-fms 3T3 cells, MCSF activation. In short, it runs like this:
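Mouse 3T3 cells expressing TIE2 intracellular/c-fms extracellular chimera treated with compound for 1 hr in serum-free DMEM (0.1% DMSO), then stimulated with MCSF. Lysates captured on anti-c-fms plates overnight at 4 °C; phosphotyrosine detected by biotin-PT66/HRP-streptavidin, OD450. IC50 by nonlinear regression, reported as pIC50.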

Assay [3] addresses T3, GST-TIE2 (intracellular domains of human TIE2) (Homo sapiens, UniProt Q02763).
T3 construct: made in house
Put plainly: TIE-2 enzyme assay (TIE2-E), LANCE method. The assay is classed as biochemical. Particulars: 80 uM ATP. The procedure, abridged: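 Baculovirus GST-TIE2 (human intracellular domain, aa 762–1104) preactivated 30 min at RT with 2 mM ATP, then reacted 30 min at RT with 1 μM D1-15 peptide, 80 uM ATP, 10 mM MgCl2, pH 7.4, 2.4% DMSO. EDTA-stopped; LANCE Eu-anti-pTyr/streptavidin-APC read-out. IC50 by nonlinear regression, reported as pIC50.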
In general terms: Time-resolved FRET reads energy transfer from a long-lived donor to a nearby acceptor.

T2 sequence (Q02763 770-1124 limits assumed, change not shown): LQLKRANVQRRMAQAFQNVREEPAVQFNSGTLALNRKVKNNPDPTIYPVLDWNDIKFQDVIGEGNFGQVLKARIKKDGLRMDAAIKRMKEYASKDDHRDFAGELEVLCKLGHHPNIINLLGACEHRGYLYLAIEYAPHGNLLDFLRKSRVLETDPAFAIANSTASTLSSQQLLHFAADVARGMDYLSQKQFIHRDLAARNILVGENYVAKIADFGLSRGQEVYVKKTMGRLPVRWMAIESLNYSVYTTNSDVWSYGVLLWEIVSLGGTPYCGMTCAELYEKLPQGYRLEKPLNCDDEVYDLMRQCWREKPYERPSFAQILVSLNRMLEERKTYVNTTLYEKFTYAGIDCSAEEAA
T1 sequence (P35968 786-1356 limits assumed): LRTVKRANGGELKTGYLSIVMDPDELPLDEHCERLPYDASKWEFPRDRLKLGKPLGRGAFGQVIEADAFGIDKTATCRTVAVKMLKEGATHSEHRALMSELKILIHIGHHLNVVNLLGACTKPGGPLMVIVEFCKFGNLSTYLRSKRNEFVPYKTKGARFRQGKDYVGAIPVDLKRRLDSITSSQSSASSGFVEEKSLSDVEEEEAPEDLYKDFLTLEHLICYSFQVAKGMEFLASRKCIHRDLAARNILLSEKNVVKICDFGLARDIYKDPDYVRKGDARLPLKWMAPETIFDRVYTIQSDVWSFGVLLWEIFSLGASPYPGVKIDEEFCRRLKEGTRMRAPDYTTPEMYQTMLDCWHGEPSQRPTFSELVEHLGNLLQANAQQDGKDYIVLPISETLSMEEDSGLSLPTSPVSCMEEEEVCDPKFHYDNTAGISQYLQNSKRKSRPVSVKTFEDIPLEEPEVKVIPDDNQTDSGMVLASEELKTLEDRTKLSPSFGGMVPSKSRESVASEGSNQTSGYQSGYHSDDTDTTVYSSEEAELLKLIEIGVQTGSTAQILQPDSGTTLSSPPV
Sequence of Recombinant GST-Tie2 (Q02763 23-1124): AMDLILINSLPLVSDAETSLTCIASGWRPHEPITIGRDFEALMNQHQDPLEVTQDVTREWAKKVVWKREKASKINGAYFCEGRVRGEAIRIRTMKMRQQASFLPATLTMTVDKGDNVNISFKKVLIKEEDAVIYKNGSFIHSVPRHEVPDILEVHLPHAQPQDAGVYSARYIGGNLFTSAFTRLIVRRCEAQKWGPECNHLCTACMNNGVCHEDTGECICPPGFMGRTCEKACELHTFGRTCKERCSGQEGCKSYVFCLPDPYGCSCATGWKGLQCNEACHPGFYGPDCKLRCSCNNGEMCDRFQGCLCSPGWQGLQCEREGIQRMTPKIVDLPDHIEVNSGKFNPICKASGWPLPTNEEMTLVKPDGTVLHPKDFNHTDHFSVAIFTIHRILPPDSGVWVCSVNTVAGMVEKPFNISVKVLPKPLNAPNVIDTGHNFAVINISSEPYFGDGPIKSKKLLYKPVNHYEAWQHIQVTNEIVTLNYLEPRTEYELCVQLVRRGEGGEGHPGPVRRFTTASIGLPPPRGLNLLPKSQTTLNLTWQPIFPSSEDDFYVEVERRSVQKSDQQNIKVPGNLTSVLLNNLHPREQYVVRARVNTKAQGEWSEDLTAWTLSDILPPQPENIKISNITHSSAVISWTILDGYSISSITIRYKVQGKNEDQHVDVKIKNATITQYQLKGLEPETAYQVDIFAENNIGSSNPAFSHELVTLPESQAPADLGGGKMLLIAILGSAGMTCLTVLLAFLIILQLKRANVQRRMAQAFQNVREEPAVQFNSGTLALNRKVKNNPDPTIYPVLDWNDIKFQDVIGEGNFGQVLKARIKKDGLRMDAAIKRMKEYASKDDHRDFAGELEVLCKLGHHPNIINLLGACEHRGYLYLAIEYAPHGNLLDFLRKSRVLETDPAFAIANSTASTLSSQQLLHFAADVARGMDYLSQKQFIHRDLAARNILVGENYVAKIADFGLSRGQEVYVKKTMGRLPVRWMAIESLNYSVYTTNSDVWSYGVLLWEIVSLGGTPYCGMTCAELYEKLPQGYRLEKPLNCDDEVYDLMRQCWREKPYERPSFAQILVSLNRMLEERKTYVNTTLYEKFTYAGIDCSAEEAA
T3 sequence (Q02763 762-1104): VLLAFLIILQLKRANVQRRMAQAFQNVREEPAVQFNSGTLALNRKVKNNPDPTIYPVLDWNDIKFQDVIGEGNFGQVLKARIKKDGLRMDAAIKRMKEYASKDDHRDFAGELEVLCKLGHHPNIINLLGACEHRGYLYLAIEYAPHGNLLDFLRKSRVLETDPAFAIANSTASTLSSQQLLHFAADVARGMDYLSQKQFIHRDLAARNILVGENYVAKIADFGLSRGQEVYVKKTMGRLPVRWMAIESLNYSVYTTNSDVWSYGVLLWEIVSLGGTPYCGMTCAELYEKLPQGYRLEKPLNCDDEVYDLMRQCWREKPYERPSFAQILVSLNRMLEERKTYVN

For the compound `CC(=O)Nc1nc2cc(Oc3ccc(NC(=O)Nc4nc(C(C)(C)C)cs4)cc3)ccc2[nH]1` [Example 146, N-(5-(4-((4-tert-Butylthiazol-2-yl)aminocarbonylamino)phenoxy)-1H-benzimidazol-2-yl)acetamide], the values for the IC50 on Recombinant GST-Tie2 and against GST-VEGFR2 were 0.1 to 1 µM and < 0.1 µM, respectively.

Turning to `COCCOCC(=O)Nc1nc2cc(Oc3ccc(NC(=O)Nc4nc(C(C)(C)C)cs4)cc3)ccc2[nH]1` [Example 158, N-(5-(4-((4-tert-Butylthiazol-2-yl)aminocarbonylamino)phenoxy)-1H-benzimidazol-2-yl)(2-(methoxy)ethoxy)acetamide], the IC50 on Recombinant GST-Tie2 was 0.1 to 1 µM; against GST-VEGFR2, < 0.1 µM.

As to `COCCOCC(=O)Nc1nc2cc(Oc3ccc(NC(=O)Nc4nccs4)cc3)ccc2[nH]1` [Example 151, N-(5-(4-((Thiazol-2-yl)aminocarbonylamino)phenoxy)-1H-benzimidazol-2-yl)(2-(methoxy)ethoxy)acetamide], the IC50 on Recombinant GST-Tie2 fell in the range of 1 to 10 µM; on GST-VEGFR2 it was 0.1 to 1 µM.

For `CCc1nnc(NC(=O)Nc2ccc(Oc3ccc4[nH]c(NC(=O)COCCOC)nc4c3)cc2)s1` [Example 156, N-(5-(4-((5-Ethyl-1,3,4-thiadiazol-2-yl)aminocarbonylamino)phenoxy)-1H-benzimidazol-2-yl)(2-(methoxy)ethoxy)acetamide], the IC50 at Recombinant GST-Tie2 is 0.1 to 1 µM; on GST-VEGFR2, < 0.1 µM.

As for `COCCOCC(=O)Nc1nc2cc(Oc3ccc(NC(=O)Nc4nc(C)cs4)cc3)ccc2[nH]1` [Example 153, N-(5-(4-((4-Methylthiazol-2-yl)aminocarbonylamino)phenoxy)-1H-benzimidazol-2-yl)(2-(methoxy)ethoxy)acetamide], the IC50 on Recombinant GST-Tie2 lay in the range of 1 to 10 µM; on GST-VEGFR2, 0.1 to 1 µM.

`COCCOCC(=O)Nc1nc2cc(Oc3ccc(NC(=O)Nc4nncs4)cc3)ccc2[nH]1` [Example 152, N-(5-(4-((1,3,4-Thiadiazol-2-yl)aminocarbonylamino)phenoxy)-1H-benzimidazol-2-yl)(2-(methoxy)ethoxy)acetamide]: the IC50 on Recombinant GST-Tie2 and on GST-VEGFR2 was 1 to 10 µM throughout.

On to `COCCOCC(=O)Nc1nc2cc(Oc3ccc(NC(=O)Nc4nnc(C(C)(C)C)s4)cc3)ccc2[nH]1` [Example 159, N-(5-(4-((5-tert-Butyl-1,3,4-thiadiazol-2-yl)aminocarbonylamino)phenoxy)-1H-benzimidazol-2-yl)(2-(methoxy)ethoxy)acetamide], for which the IC50 at Recombinant GST-Tie2 and on GST-VEGFR2 was < 0.1 µM each time.

For the compound `COCCOCC(=O)Nc1nc2cc(Oc3ccc(NC(=O)Nc4nnc(C)s4)cc3)ccc2[nH]1` [Example 155, N-(5-(4-((5-Methyl-1,3,4-thiadiazol-2-yl)aminocarbonylamino)phenoxy)-1H-benzimidazol-2-yl)(2-(methoxy)ethoxy)acetamide], the IC50 lay in the range of 1 to 10 µM on Recombinant GST-Tie2 and 0.1 to 1 µM at GST-VEGFR2.

On to `COC(=O)Nc1nc2cc(Oc3ccc(NC(=O)Nc4cc(C(F)(F)F)ccc4Cl)cc3)ccc2[nH]1` [Example 43], for which the IC50 is 1 to 10 µM in assay [1], < 0.1 µM in assay [2], < 0.1 µM against GST-VEGFR2 and < 0.1 µM in assay [3].

In the case of `CN(C)CC(=O)Nc1nc2cc(Oc3ccc(NC(=O)Nc4cc(C(F)(F)F)ccc4F)cc3)ccc2[nH]1` [Example 102], the IC50 (in assay [1]; in assay [2]; against GST-VEGFR2; in assay [3]) was < 0.1 µM in each case.

In the case of `COC(=O)Nc1cn2cc(Oc3ccc(NC(=O)Nc4cc(C(F)(F)F)ccc4F)cc3)ccc2n1` [Example 68, Methyl N-(5-(4-((2-fluoro-5-(trifluoromethyl)phenyl)aminocarbonylamino)phenoxy)-3a-aza-2-indolyl)carbamate], the IC50 (in assay [1]; in assay [2]; against GST-VEGFR2; in assay [3]) was < 0.1 µM each time.

`COC(=O)Nc1nc2cc(Oc3ccc(NC(=O)Nc4cc(OC)ccc4OC)cc3)ccc2[nH]1` [Example 42, Methyl N-(5-(4-((2,5-dimethoxyphenyl)aminocarbonylamino)phenoxy)-1H-benzimidazol-2-yl)carbamate]: the IC50 in assay [1] was 0.1 to 1 µM; in assay [2], < 0.1 µM; at GST-VEGFR2 it was < 0.1 µM; in assay [3], < 0.1 µM.

Take `COCC(=O)Nc1nc2cc(Oc3ccc(NC(=O)Nc4cc(C(F)(F)F)ccc4F)cc3)ccc2[nH]1` [Example 31, N-(5-(4-((2-Fluoro-5-(trifluoromethyl)phenyl)aminocarbonylamino)phenoxy)-1H-benzimidazol-2-yl)-2-methoxyacetamide]: the IC50 (in assay [1]; in assay [2]; on GST-VEGFR2; in assay [3]) was < 0.1 µM in each case.

Consider `NCC(=O)Nc1nc2cc(Oc3ccc(NC(=O)Nc4cc(C(F)(F)F)ccc4F)cc3)ccc2[nH]1` [Example 30, N-(5-(4-((2-Fluoro-5-(trifluoromethyl)phenyl)aminocarbonylamino)phenoxy)-1H-benzimidazol-2-yl)-2-aminoacetamide dihydrochloride], for which the IC50 in assay [1] is 0.1 to 1 µM; in assay [2], < 0.1 µM; against GST-VEGFR2, < 0.1 µM; in assay [3], < 0.1 µM.

For `COC(=O)Nc1nc2ccc(Oc3ccc(NC(=O)Nc4cc(C(F)(F)F)ccc4F)cc3)cc2n1CCN(C)C` [Example 70, Methyl N-(6-(4-((2-fluoro-5-(trifluoromethyl)phenyl)aminocarbonylamino)phenoxy)-1-(2-(dimethylamino)ethyl)-1H-benzimidazol-2-yl)carbamate], the IC50 in assay [1] is 1 to 10 µM; in assay [2], 0.1 to 1 µM; at GST-VEGFR2, < 0.1 µM; in assay [3], < 0.1 µM.

Turning to `O=C(Nc1ccc(Oc2ccc3nc(NC(=O)c4cccnc4)[nH]c3c2)cc1)Nc1cc(C(F)(F)F)ccc1F` [Example 93, N-(5-(4-((2-Fluoro-5-(trifluoromethyl)phenyl)aminocarbonylamino)phenoxy)-1H-benzimidazol-2-yl)-3-pyridinecarboxamide], the IC50 is 1 to 10 µM in assay [1], < 0.1 µM in assay [2], < 0.1 µM against GST-VEGFR2 and < 0.1 µM in assay [3].

Turning to `CC(C)(C)OC(=O)NCC(=O)Nc1nc2cc(Oc3ccc(NC(=O)Nc4cc(C(F)(F)F)ccc4F)cc3)ccc2[nH]1` [Example 35, N-(5-(4-((2-Fluoro-5-(trifluoromethyl)phenyl)aminocarbonylamino)phenoxy)-1H-benzimidazol-2-yl)-2-(N-(t-butoxycarbony)amino)acetamide], the IC50 is 1 to 10 µM in assay [1], 0.1 to 1 µM in assay [2], < 0.1 µM against GST-VEGFR2 and < 0.1 µM in assay [3].

As to `COC(=O)Nc1nc2ccc(Sc3ccc(NC(=O)Nc4cccc(Br)c4)cc3)cc2[nH]1` [Example 4, Methyl N-(5-(4-((3-bromophenyl)aminocarbonylamino)phenylthio)-1H-benzimidazol-2-yl)carbamate], the VEGF-C result in assay [1] was “−”. Besides, the IC50 in assay [2] was 1 to 10 µM; against GST-VEGFR2 it was 0.1 to 1 µM; in assay [3], < 0.1 µM.

With `O=C(Nc1ccc(Oc2ccc3[nH]c(NC(=O)OCc4ccccc4)nc3c2)cc1)Nc1cc(C(F)(F)F)ccc1F` [Example 81, Benzyl N-(5-(4-((2-fluoro-5-(trifluoromethyl)phenyl)aminocarbonylamino)phenoxy)-1H-benzimidazol-2-yl)carbamate], the VEGF-C result in assay [1] is “−”. For the same compound, the IC50 (in assay [2]; on GST-VEGFR2; in assay [3]) was < 0.1 µM throughout.
